Legend:
[1] = tested on: SW620 (human colorectal cancer cell line); assay: MTT anti-proliferative assay, SW620; assay type: cell-based; conditions: means ± SD, n = 3; for IC50: Homo sapiens, SW-620, 48 h incubation
Excerpt: (§1) The anti-proliferative activities against five human cancer cell lines, including HCT116 (human colorectal cancer cell line), MCF-7 (human breast cancer cell line), SW620 (human colorectal cancer cell line), BEL7402 (human hepatocellular carcinoma cell line), and HepG2 (human hepatocellular carcinoma cell line) were established for all the target compounds using the MTT assay.
(§2) The propidium iodide (PI) and Annexin V-FITC apoptosis detection kit were purchased from Invitrogen (Eugene, OR, United States). 3-(4,5-Dimethylthiazol-2-yl)-2,5-diphenyl-2H-tetrazolium bromide (MTT) was purchased from Sigma-Aldrich Co. (St. Louis, MO, United States). All human cell lines were used in this study, colorectal cancer cell HCT116, colorectal cancer cell SW620, breast cancer cell MCF-7, liver hepatocellular carcinoma cell BEL7402, liver hepatocellular carcinoma HepG2 and normal liver cell L02 were initially purchased from American Type Culture Collection (ATCC, Manassas, VA, United States). RPMI-1640 media, Dulbecco’s modified Eagle’s medium (DMEM), and foetal bovine serum (FBS) were provided from Gibco Company (Grand Island, NY, United States). Cell line MCF-7 and HepG2 were cultivated in DMEM containing 10% (v/v) heat-inactivated FBS, 100 units/ml penicillin and […] streptomycin (Grand Island, NY, United States). Cell lines HCT116, BEL7402, SW620, and L02 were cultivated in RPMI 1640 medium containing 10% (v/v) heat-inactivated FBS, 100 units/ml penicillin, and […] streptomycin. The cells were incubated at 37°C under a 5% CO2 and 90% relative humidity (RH) atmosphere.
(§3) Stock solutions were prepared by diluting target compounds in DMSO at concentrations (1.25, 2.5, 5, and 10 mM). The stock solution was then diluted (1.25, 2.5, 5, and 10 μM) with culture medium, and the concentration of DMSO was controlled not to exceed 0.1%.
(§4) Place the cells in a 96-well plate at an appropriate density to ensure exponential growth (1 × 10^4–1.2×10^4 cells per well) throughout the experiment, and then allow the cells to adhere for 24 h. The cells were then treated with continuous concentrations of each compound (1.25, 2.5, 5, and 10 μM) for 48 h. After 48 h of incubation, 15 μl of MTT solution was added to each well, and the final concentration was 2 mg/ml. Then incubate for another 4 h. After incubation, remove the MTT solution and add […] of DMSO to each well for staining. Shake vigorously for 10 min at room temperature to ensure complete dissolution. The optical density (OD) was read on a microplate reader (ELx 800, BioTek, Highland Park, Winooski, VT, United States) with a wavelength of 492 nm, and then the data was analyzed.

[2] = tested on: HepG2 (human hepatocellular carcinoma cell line); assay: MTT anti-proliferative assay, HepG2; assay type: cell-based; conditions: means ± SD, n = 3; for IC50: Homo sapiens, HepG2, 48 h incubation
Excerpt: as §1, §2, §3, §4

[3] = tested on: L02 (human normal liver cells); assay: Cytotoxicity against normal cell line L02; assay type: cell-based
Excerpt: The lack of selectivity between normal and cancer cells is one of the main limitations of antitumor drugs ([Dy and Adjei, 2013]). Therefore, we evaluated the cytotoxicity of compounds B2, and E in normal cell lines L02 (human normal liver cells) to determine the selectivity index (ratio of cytotoxicity in L02 cells compared to that in cancer cells). […] Therefore, this compound was chosen for further biological studies.
as §2, §3, §4

[4] = tested on: MCF-7 (human breast cancer cell line); assay: MTT anti-proliferative assay, MCF-7; assay type: cell-based; conditions: means ± SD, n = 3; for IC50: Homo sapiens, MCF7, 48 h incubation
Excerpt: as §1, §2, §3, §4

[5] = tested on: HCT116 (human colorectal cancer cell line); assay: MTT anti-proliferative assay, HCT116; assay type: cell-based; conditions: means ± SD, n = 3; for IC50: Homo sapiens, HCT-116, 48 h incubation
Excerpt: as §1, §2, §3, §4

[6] = tested on: BEL7402 (human hepatocellular carcinoma cell line); assay: MTT anti-proliferative assay, BEL7402; assay type: cell-based; conditions: means ± SD, n = 3; for IC50: Homo sapiens, Bel-7402, 48 h incubation
Excerpt: as §1, §2, §3, §4

| SMILES | IC50 [1] [µM] | melting point [°C] | IC50 [2] [µM] | IC50 ([3]; Homo sapiens, normal cell line L02) [µM] | Selectivity index BEL7402 ([3]; IC50 on normal cells (L02)/IC50 on tumour cells (BEL7402)) | Selectivity index HCT116 ([3]; IC50 on normal cells (L02)/IC50 on tumour cells (HCT116)) | Selectivity index SW620 ([3]; IC50 on normal cells (L02)/IC50 on tumour cells (SW620)) | IC50 [4] [µM] | IC50 [5] [µM] | IC50 [6] [µM] | IC50 values SW620 ([1]; 48 h incubation) | IC50 values HepG2 ([2]; 48 h incubation) | IC50 values MCF-7 ([4]; 48 h incubation) | IC50 values HCT116 ([5]; 48 h incubation) | IC50 values BEL7402 ([6]; 48 h incubation) |
| --- | --- | --- | --- | --- | --- | --- | --- | --- | --- | --- | --- | --- | --- | --- | --- |
| CC1(C)CC[C@]2(C(=O)OCc3nnc(-c4ccc(F)cc4)o3)[C@H](O)C[C@]3(C)C(=CC[C@@H]4[C@@]5(C)CC[C@H](O)[C@@](C)(C=O)[C@@H]5CC[C@]43C)[C@@H]2C1 [Compound B2, (5-(4-fluorophenyl)-1,3,4-oxadiazol-2-yl)methyl (4aR,5R,6aS,6bR,8aR,9S,10S,12aR,12bR,14bS)-9-formyl-5,10-dihydroxy-2,2,6a,6b,9,12a-hexamethyl-1,3,4,5,6,6a,6b,7,8,8a,9,10,11,12,12a,12b,13,14b-octadecahydropicene-4a (2H)-carboxylate] | 7.75 ± 1.43 | 122 to 124 | 4.59 ± 1.73 | > 10 | > 3.52 | > 3.20 | > 1.29 | 3.99 ± 1.28 | 3.12 ± 0.87 | 2.84 ± 0.66 |  |  |  |  |  |
| COc1ccc(-n2cnn(CCOC(=O)[C@]34CCC(C)(C)C[C@H]3C3=CC[C@@H]5[C@@]6(C)CC[C@H](O)[C@@](C)(C=O)[C@@H]6CC[C@@]5(C)[C@]3(C)C[C@H]4O)c2=O)cc1 [Compound C5, 2-(4-(4-methoxyphenyl)-5-oxo-4,5-dihydro-1H-1,2,4-triazol-1-yl)ethyl (4aR,5R,6aS,6bR,8aR,9S,10S,12aR,12bR,14bS)-9-formyl-5,10-dihydroxy-2,2,6a,6b,9,12a-hexamethyl-1,3,4,5,6,6a,6b,7,8,8a,9,10,11,12,12a,12b,13,14b-octadecahydropicene-4a (2H)-carboxylate] | 7.25 ± 1.72 | 186 to 188 | > 10 |  |  |  |  | > 10 | 3.21 ± 1.07 | > 10 |  |  |  |  |  |
| CC1(C)CC[C@]2(C(=O)OCc3cc(-c4ccccc4)no3)[C@H](O)C[C@]3(C)C(=CC[C@@H]4[C@@]5(C)CC[C@H](O)[C@@](C)(C=O)[C@@H]5CC[C@]43C)[C@@H]2C1 [D, (3-phenylisoxazol-5-yl)methyl (4aR,5R,6aS,6bR,8aR,9S,10S,12aR,12bR,14bS)-9-formyl-5,10-dihydroxy-2,2,6a,6b,9,12a-hexamethyl-1,3,4,5,6,6a,6b,7,8,8a,9,10,11,12,12a,12b,13,14b-octadecahydropicene-4a (2H)-carboxylate] | > 10 | 176 to 178 | > 10 |  |  |  |  | > 10 | > 10 | > 10 | no strong activity | no strong activity | no strong activity | no strong activity | no strong activity |

— PMC9490060, “Synthesis and evaluation of anticancer activity of quillaic acid derivatives: A cell cycle arrest and apoptosis inducer through NF-κB and MAPK pathways” (Frontiers in Chemistry, 2022)
